Columns and labels:
HEK293 GFP Parkin cells = test: Parkin recruitment assay; type: cell-based
Experimental: HEK293 GFP Parkin cells were seeded into 12-well plates containing coverslips. Cells were treated with small molecules for 2 hours prior to mitophagy induction with 10 μM CCCP, unless indicated otherwise. Following fixation with 4% PFA, immunostaining was carried out using anti-ATP5A primary antibody and anti-mouse Alex Fluor 568.
To measure the percentage of cells with Parkin localized to mitochondria a 2 step process was employed: (1) whole cell segmentation based on GFP Parkin using CellProfiler software and (2) classification into Parkin distribution subpopulation using CellProfiler Analyst. The percentage of cells with Parkin localized to mitochondria was determined in each image. Images were taken at 20× magnification for this experiment, resulting in the classification of at least 300 cells in each treatment group per trial.

HeLa cells [1] = test: Mito-QC assay (targeting of mitochondria to lysosomes); type: cell-based; conditions: 0.5 μM 2 h pre-treatment, 10 μM CCCP 6 h with E-64 and leupeptin
Experimental: HeLa cells were seeded into 6-well plates containing glass coverslips and allowed to adhere overnight. Cells were co-transfected with RGOMP25 and Cerulean-Parkin plasmids 24 hours prior to treatments. E-64 and leupeptin were added along with either DMSO or 10 μM CCCP for 6 hours prior followed by a PBS wash, fixation with 4% PFA and a final PBS wash prior to mounting onto glass slides with Fluoromount.
Cells were treated with 50 μM chloroquine for 16 hours prior to addition of E64, leupeptin, SR3677 and CCCP in the indicated treatment group. For the in vivo mitoQC assays, 5 7-day old male TH-GAL4>UAS-mitoQC were placed into vials containing water (control), sublethal 1 mM paraquat, 1 mM SR3677 alone and in combination with paraquat for 7 days. […] Fly brains were mounted in VectaShield™ mounting medium for imaging using the Zeiss LSM700 confocal fluorescence microscope with 40× 1.4 NA Oil Plan-APOCRAMAT objective and the appropriate lasers and filter. […]
Quantification of the RG assay was done using Fiji software. […] A red/green fluorescence intensity ratio was determined for each pixel. Pixels were considered red-only if the red/green fluorescence ratio was greater than or equal to 1.5. The area of red-only pixels over the total non-background area was determined and averaged across 4 independent trials in which at least 20 cells were quantified per treatment.

HK2 = HK2 mitochondrial fraction and phosphorylation (fractionation, Phos-tag immunoblot); type: cell-based
Experimental: (a) SH-SY5Y treated with either 0.5 μM SR3677 or with DMSO were separated into total cell cytosolic and mitochondrial fractions. Fractions were separated by SDS-PAGE and immunoblotting was performed with anti-HK2 and anti-ATP5A antibodies. (b) The proposed mechanism through which SR3677 increases Parkin recruitment. (c) Cells serum-starved for 2 hours were treated with either DMSO or SR3677 for 10 or 30 minutes prior to harvesting. Lysates were separated by SDS-PAGE and immunoblotting was performed with anti-HK2 and anti-actin antibodies. Samples were also run on Phos-tag gels in parallel and immunoblotting was performed with anti-HK2 antibody. (d) Densitometry analysis was performed to quantify HK2 levels in each sample, followed by (e) normalization to mitochondrial marker, CValpha. Average HK2/CValpha ratios are plotted (n=2 independent experiments). (f) Densitometry analysis was performed on the band indicated by the arrow in (c). The average intensity of the indicated band normalized to actin loading control is expressed[…] (n=3 independent experiments). P-values were determined by paired student's t-test for (b, f), *P<0.05. All error bars represent s.e.m. […]

HeLa cells [2] = test: HK2 distribution after mitochondrial damage; type: cell-based; conditions: HeLa cells which lack endogenous Parkin
From the text: Since HK2 is also a Parkin substrate, HeLa cells which lack endogenous Parkin were used to examine the effect of SR3677 treatment on HK2 distribution^43.

Canton(S) flies = type: in vivo, Drosophila
Experimental: Fresh vials containing standard fly food supplemented with the indicated treatments were changed out every 2 days. The number of flies surviving each day was counted and log-rank tests were performed to determine statistical significance. […] The number of flies to climb beyond 9.5 cm every 10 seconds was assessed. The percentage of flies in each treatment to cross this line was determined. The climbing ability of each treatment was normalized to the control group treated with water only. […] Log-rank tests were performed to determine p-values for survival analyses (a, b, g), *P<0.05. P-values were determined by one-tailed paired student's t-test for all climbing assays (c-e, h), *P<0.05. Data is expressed as mean±s.e.m. All error bars represent s.e.m
Drosophila aged 7 days are fed food supplemented with either water (control), 1 mM SR3677, 10 mM paraquat or SR3677 in combination with paraquat. The survival of flies was recorded each day following administration of the treatments and climbing abilities were tested every 2 days by performing negative geotaxis assays.
Male Canton(S) Drosophila were aged 7 days prior to feeding with standard fly food supplemented with water, 10 mM paraquat, 1 mM SR3677, or with combinations of these chemicals. Flies were placed into new vials containing fresh food supplemented with the treatments previously administered and 2 days later, climbing assays were performed. Flies were placed into plastic cylinder vials and tapped down, so all flies fell to the bottom. The number of flies to climb beyond 12.5 cm was counted every 10 s and values are represented as the percentage of total flies in each treatment group.

S2R+ cells = test: mitoSOX mitochondrial superoxide staining; type: cell-based; conditions: co-treatment with paraquat
Experimental: A) Staining was performed with mitoSOX Red Mitochondrial Superoxide dye. B) Quantification of the fluorescence intensity of the mitoSOX probe in the indicated treatments (n=3). Data is presented as mean±s.e.m. P-values were determined by paired student's t-test, *P-value<0.05.
Whether SR3677 may protect against paraquat-induced phenotypes by interfering with paraquat's activity was also assessed. Paraquat gives rise to mitochondrial superoxide species that can be detected using mitoSOX, a fluorescent probe that is targeted to mitochondria, where it may be oxidized by superoxides. The oxidized mitoSOX species fluoresces upon encountering nucleic acid. The fluorescence intensity of Schneider's S2-R^+ cells, a cell line derived from dissociated embryos with a flat morphology amenable to imaging, was assessed following treatments with paraquat or paraquat and SR3677.

Structure (SMILES): CN(C)CCOc1cc(-c2cn[nH]c2)ccc1NC(=O)[C@@H]1COc2ccccc2O1 [SR3677]
- Parkin recruitment to damaged mitochondria (HEK293 GFP Parkin cells; 0.5 μM, 17 hour and 2 hour pre-incubation, CCCP): increased Parkin recruitment to damaged mitochondria
- EC50 (HEK293 GFP Parkin cells; Homo sapiens, HEK293, 2 h pre-treatment, then 10 μM CCCP 1 h, read-out: EC50, percentage of cells with mitochondrial Parkin): 57 nM
- Parkin distribution in the absence of CCCP (HEK293 GFP Parkin cells; compound alone): diffuse
- concentration at which the maximal effect on Parkin recruitment was achieved (HEK293 GFP Parkin cells; dose series, CCCP): ≤ 0.5 µM
- mitochondrial targeting to lysosomes (red-only mitochondrial area) (HeLa cells [1]): increased the extent of mitochondrial targeting to lysosomes
- HK2 in the mitochondrial fraction (HK2; SH-SY5Y cells, 0.5 μM): More HK2 was observed in the mitochondrial fraction
- phosphorylation of HK2 (Phostag gels) (HK2; serum-starved cells, 10 or 30 minutes): Increased phosphorylation of HK2
- mitochondrial distribution of HK2 following mitochondrial damage (HeLa cells [2]): increases the mitochondrial distribution of HK2
- survival of flies, compound alone (Canton(S) flies; 1 mM SR3677 in food): does not affect survival of flies
- survival of flies challenged with paraquat (Canton(S) flies; 1 mM SR3677 with 10 mM paraquat in food): significantly improved viability of flies
- paraquat-mediated increase in mitochondrial superoxide levels (S2R+ cells): does prevent the paraquat-mediated increase in mitochondrial superoxide levels

From patent publication US20220074923A1, “METHODS OF IDENTIFYING PARKIN-MEDIATED MITOPHAGY ACTIVATING AGENTS” (THE GOVERNING COUNCIL OF THE UNIVERSITY OF TORONTO, priority 2018, published 2022)
